{"source": "patent US20100160408A1", "about": "“VILDAGLIPTIN FOR TREATING GENERAL PERIPHERAL NEUROPATHIES” (priority 2004, published 2010)", "key": {"aged rats [1]": {"test_system": "aged rats", "assay": "Morris water maze learning test in aged rats", "format": "in vivo", "details": "repeated oral administration, vildagliptin 3 mg/kg and/or donepezil 0.3 mg/kg, test started on day 20 of treatment, versus control group", "source_text": "(§1) The ameliorative effect of vildagliptin or the combined use of vildagliptin with the compounds having cholinesterase inhibitory activity on learning deficits is investigated in aged rats.\n(§2) Methods Male (3 to 27 months old) rats of transgenic strain are used. The aged rats are divided into the following four groups (the active ingredient dosage can be adapted by the person skilled in the art).\n(§3) 1) Control group: Repeated administration of placebo pill.\n(§4) 2) Vildagliptin group: Repeated oral administration of vildagliptin 3 mg/kg.\n(§5) Passive avoidance learning test is started on day 14 of treatment, and Morris water maze learning test on day 20 of treatment.\n(§6) On each day of experiment, vildagliptin arid/or a cholinesterase inhibitor are administered 30 minutes and 1 hour, respectively, before initiation of the trial.\nMorris Water Maze Learning Same animals used in the passive avoidance test are subjected for the water maze task. However, some rats can not swim well in the water tank, thus they are excluded in the water maze task.\nIn pretraining which is performed for swimming training and motivation for escaping from water, four trials are performed using a water bath, 80 cm in diameter, in a condition that the platform is visible. […]"}, "aged rats [2]": {"test_system": "aged rats", "assay": "Passive avoidance learning test in aged rats", "format": "in vivo", "details": "repeated oral administration, vildagliptin 3 mg/kg and/or donepezil 0.3 mg/kg, test started on day 14 of treatment, versus control group", "source_text": "as §1, §2, §3, §4, §5, §6\nPassive Avoidance Learning: The passive avoidance learning test is performed using a chamber consisting of light and dark compartments. […] After a mouse moves to the dark compartment, the mouse is kept there for about 10 seconds with the door closed. One to two hours after the habituation trial, acquisition trial is performed. […]\nIn each trial, the latency from opening of the slide door until the animal moved to the dark compartment (step-through latency) is measured."}}}
{"smiles": "N#C[C@@H]1CCCN1C(=O)CNC12CC3CC(CC(O)(C3)C1)C2", "note": "[vildagliptin, (S)-1-[(3-hydroxy-1-adamantyl)amino]acetyl-2-cyano-pyrrolidine]", "values": [{"measurement": "water maze learning deficit (latency to find platform submerged in the water)", "setting": "aged rats [1]", "result": "significant improvement in water maze learning deficit"}, {"measurement": "learning deficit in passive avoidance learning (step-through latency / avoidance time)", "setting": "aged rats [2]", "result": "significant improvement of the learning deficit"}]}
